Results taken from US6979682B2, “Platelet-activating factor antagonist inhibition of angiogenesis and tumor growth induced by basic fibroblast” (Board of Supervisors of Louisiana State University and …, priority 2001, dated 2005).

How the values were obtained:
[1] = test system: human umbilical vein endothelial cells (HUVEC); assay: HUVEC proliferation, [3H]thymidine incorporation; format: cell-based
Protocol: Human umbilical vein endothelial cells (“HUVEC”) were propagated in one of three growth media depending on the experimental conditions. HUVEC were maintained in endothelial basal medium (“EBM-2”) (Clonetics, Walkersville, Md.) supplemented with 2% FBS (Clonetics). HUVEC were also grown in endothelial growth medium (“EGM”) (Clonetics), which contained 3 mg/ml (protein content) bovine brain extract, 10 ng/ml EGF ([…]), 1 μg/ml hydrocortisone, 2% FBS, gentamicin, and amphotericin-B. HUVEC were likewise grown in EGM-2, supplemented with VEGF ([…]), R^3-IGF-1 (long recombinant-3 insulin-like growth factor-1), ascorbic acid, heparin, 2% FBS, EGF, bFGF, gentamicin, and amphotericin-B.
Based on the above in vitro tumor data, the effect of BN-50730 on tumor growth is believed to result from inhibition of angiogenesis. To test this theory, the effect of BN-50730 on angiogenesis of HUVEC cells was measured using two growth media designed to induce rapid proliferation, EGM or EGM-2. HUVEC growth was measured by [^3H]thymidine incorporation into DNA.
As many tumors are known to produce angiogenesis-inducing factors, an experiment was conducted to test for increased proliferation of HUVEC cells exposed to 201T-conditioned medium. 201T cells were allowed to condition basal medium (EBM supplemented with 2% FBS) for 48 hr. […] EGM-2 is a medium containing the growth factors bFGF, VEGF, IGF-1, and EGF.
To characterize the inhibitory effects of BN-50730 on HUVEC proliferation, a series of growth assays was performed in which growth factors were either added or omitted singly from the growth medium in the presence or absence of BN-50730. The cells were grown in a medium supplemented with [^3H]thymidine, in either the presence or absence of BN-50730. Cells that proliferate will incorporate [^3H]thymidine into their DNA. In the first experiment, individual growth factors VEGF, IGF-1, bFGF, or EGF were added to EBM-2 supplemented with 2% FBS. […] This experiment supports the hypothesis that different cellular mechanisms use different peptide growth factors.
In a subsequent experiment, mixtures of the growth factors were analyzed, with only one growth factor absent from the medium, and each of the other three were present, in the presence or absence of 10 μM BN-50730. […] However, no reduction was seen when bFGF was absent.

[2] = test system: bFGF; assay: Western blot analysis of cell lysates for bFGF; format: cell-based, human; settings: 5 μM, 18 hr prior to cell harvest
Protocol: HUVEC, PC-3, and 201T cells were grown to 75% confluency in the appropriate growth media. BN-50730 (5 μM) or vehicle (DMSO) was added to each cell line 18 hr prior to cell harvest. Cells were washed three times in phosphate-buffered saline (“PBS”) and scraped into Lemely buffer which lacked bromophenol blue and β-mercaptoethanol (0.1 M NaCl, 0.01M Tris-HCl (pH 7.6), 0.001 M EDTA, 1 μg/ml aprotinin, 100 μg/ml phenylmethylsulfonyl flouride, 2% SDS, and 10% glycerol). The cell suspension was boiled for 10 min and then immediately stored at −20° C. Protein levels were quantified using a Bio-Rad Protein Assay (Bio-Rad, Hercules, Calif.). Protein samples (20 μg) were separated through a 10–20% denaturing gradient acrylamide gel in Tris-glycine buffer and transferred to nitrocellulose (Bio-Rad) by electrophoretic blotting. […] Primary antibody was detected using alkaline phosphatase-conjugated goat anti-mouse IgG (Bio-Rad).
The methods were as in Example 1. Lysates were analyzed from HUVEC cells grown in the presence of DMSO (Lane 1) or 5 μM BN-50730 (Lane 2); PC-3 cells grown in the presence of DMSO (Lane 3) or 5 μM BN-50730 (Lane 4); and 201T cells grown in the presence of DMSO (Lane 5) or 5 μM BN-50730 (Lane 6). […]

Q: For `COc1ccc(NC(=O)N2CCc3c(sc4c3C(c3ccccc3Cl)=NCc3nnc(C)n3-4)C2)cc1` [BN-50730, tetrahydro-4,7,8,10 methyl-1 (chloro-2 phenyl)-6 (methoxy-4 phenyl-carbomoyl)-9 pyrido [4′,3′-4,5] thieno [3,2-f] triazolo-1,2,4[4,3-α]diazepine-1,4], which “HUVEC growth in EGM or EGM-2 medium” value ([1]; 5 μM, both growth conditions, p=0.001, Student's t-test) is on record?
A: significantly reduced the growth of HUVEC

Q: What about the “stimulation of HUVEC growth in 201T-conditioned medium or EGM-2 medium” value ([1]; 5 μM, either medium) of the same molecule?
A: inhibited

Q: What about the “HUVEC growth in medium containing EGF as single growth factor” value ([1]; 10 μM, EBM-2 + 2% FBS + EGF) of the same molecule?
A: No difference

Q: What about the “HUVEC growth in medium containing IGF-1 as single growth factor” value ([1]; 10 μM, EBM-2 + 2% FBS + IGF-1) of the same molecule?
A: No difference

Q: And the “HUVEC growth in medium containing VEGF as single growth factor” value ([1]; 10 μM, EBM-2 + 2% FBS + VEGF, p=0.036)?
A: small, but significant

Q: What about the “HUVEC growth in medium containing bFGF as single growth factor” value ([1]; 10 μM, EBM-2 + 2% FBS + bFGF, p=0.0002) of the same molecule?
A: larger reduction

Q: And the “HUVEC growth in medium with bFGF absent” value ([1]; 10 μM, VEGF, IGF-1 and EGF present)?
A: no reduction

Q: What about the “HUVEC growth in medium lacking only VEGF, IGF-1 or EGF” value ([1]; 10 μM, other three growth factors present) of the same molecule?
A: reduction in growth

Q: And the “production of bFGF by 201T and PC-3 cells” value [2]?
A: does not inhibit the production of bFGF
